In US6878388B1, “Vanadium compounds for treating proliferative cell disorders” (Parker Hughes Institute, priority 2000, dated 2005):

How the values were obtained:
[1] = test system: U138 human glioblastoma cells; test: MTT cytotoxicity assay, U138; format: cell-based; details: 48 h incubation, 3 independent experiments, read-out: IC50 (mean ± SE)
Protocol: (§1) Human brain tumor cells lines U87 MG (Cat.# HTB-14), U118 MG (Cat. # HTB-15), U138 (Cat # HTB-16), U373 MG (CAT. # HTB-17), and T98G (Cat. # CRL-1690) and breast cancer cell lines BT-20 (Cat # HTB-19), MDA-MB-231 (Cat # HTB-26), MDA-MB-361 (Cat # HTB-27), and MCF-7 (Cat # HTB-22) were obtained from American Type Culture Collection (ATCC, Rockville, Md.) and maintained as continuous cell lines in Dulbecco's modified Eagles's medium (U87, U118, U138, U373, T98 and BT-20) or Leibovitz's L-15 medium (MDA-MB-231 and MDA-MB-361). All media were supplemented with 10% fetal calf serum (FCS), 4 mM glutamine, 100 U/ml penicillin G and […] streptomycin sulfate. All tissue culture reagents were obtained from Life Technologies Inc. (GIBCO-BRL, Gaithersburg, Md.).
(§2) The cytotoxicity of [VO(SO4)(Me2-Phen)2] against human cancer cell lines was analyzed using the MTT (3-[4,5-dimethylthiazol-2-yl]-2,5-diphenyl tetrazolium bromide) assay (Boehringer Mannheim Corp., Indianapolis, Ind.) as described previously (Narla et al., Clin Cancer Res., 4: 1405-1414, 1998). […] The absorbance at 540 nm (a reference wavelength of 690 nm was used) of the solution in each well was measured using a microplate reader (Labsystems). The percent survival and the IC50 values were calculated using Graphpad Prism v2.0 (Graphpad Software, Inc., San Diego, Calif.) as described previously (Narla et al., Supra). […]

[2] = test system: BT-20 breast cancer cells; test: MTT cytotoxicity assay, BT-20; format: cell-based, human; details: BT-20 cells, 48 h incubation, 3 independent experiments, read-out: IC50 (mean ± SE)
Protocol: as §1, §2

[3] = test system: MDA-MB-231 breast cancer cells; test: MTT cytotoxicity assay, MDA-MB-231; format: cell-based, human; details: MDA-MB-231 cells, 48 h incubation, 3 independent experiments, read-out: IC50 (mean ± SE)
Protocol: as §1, §2

U87 glioblastoma cells = test: In situ detection of apoptosis (TdT-mediated dUTP nick-end labeling), U87; format: cell-based, human; details: dUTP-FITC labeling, read-out: apoptotic EC50
Protocol: Apoptosis was detected using an in situ cell death detection kit (Boehringer Mannheim Corp., Indianapolis, Ind.) as described previously (Albini et al., J. Cell Biol., 105: 1867-1872, 1987; Huang et al., J Biol Chem., 272: 2927-2935, 1997). Cells were incubated with [VO(SO4)(Me2-Phen)2] for 48 hours at 37° C., fixed, permeabilized, incubated with the reaction mixture containing terminal deoxynucleotidyl transferase (TdT) and fluorescein isothiocyanate (FITC)-conjugated dUTP and counterstained with propidium iodide. Cells were transferred to slides and viewed with confocal laser scanning microscope (Bio-Rad MRC 1024) mounted on a Nikon Eclipse E800 series upright microscope as previously reported (Narla et al., Supra).
Administration of [VO(SO4)(Me2-Phen)2] to cells induced apoptotic or programmed cell death as determined using the TdT-mediated dUTP nick-end labeling of exposed 3′-OH termini of DNA with dUTP-FITC.

[4] = test system: U87 human glioblastoma xenografts; test: SCID mouse xenograft model of human glioblastoma; format: in vivo, SCID mice
Protocol: FIGS. 1A-1B illustrate the in vivo antitumor activity of the vanadium compound, [VO(SO4)(Me2-Phen)2] against human glioblastoma and breast cancer in SCID mice. The effects of daily treatment with [VO(SO4)(Me2-Phen)2] (10 mg/kg/day) or 5% DMSO in PBS (given five days per week for four weeks beginning the day after inoculation) on tumor growth and progression of glioblastoma (FIG. 1A) and breast cancer (FIG. 1B) are illustrated. Comparisons between groups were done using the log-rank test.
The animal protocols used in this study were approved by the Parker Hughes Institute Institutional Animal Care and Use Committee (IACUC). […]
The right and left hind legs of the SCID mice were inoculated subcutaneously with 1×10^6 U87 human glioblastoma and 1×10^6 MDA-MB-231 beast cancer cells, respectively, in 0.1 mL PBS. […] Mice were monitored daily for health status as well as tumor growth and were sacrificed if they became moribund, developed tumors which impeded their ability to attain food or water, or at the ed of the six-week observation period. Tumors were measured using Vernier calipers three times per week. Tumor volumes were calculated according to the following formula, as described previously (Narla et al., Clin Cancer Res., 4: 1405-14, 1998; Friedman et al., Cancer Res., 55: 2853-2857, 1995): Tumor volume=(Width)^2(Length)/2. […]

Which results are given for Cc1ccnc2c1ccc1c(C)ccnc12.Cc1ccnc2c1ccc1c(C)ccnc12.O=S(=O)([O-])[O-].[O]=[V+2] [[VO(SO4)(Me2-Phen)2], bis(4,7-dimethyl-1,10-phenanthroline) sulfatooxovanadium (IV)]?
IC50 [1]: 2700 ± 400 nM; IC50 [2]: 1600 ± 700 nM; IC50 [3]: 500 ± 100 nM; EC50 (U87 glioblastoma cells): 4200 ± 900 nM; average size of tumor xenografts ([4]; U87, 1.5 months after inoculation, 10 mg/kg i.p., vehicle control 6928±653, P=0.007): 3199±646 mm^3; mice remaining alive and free of detectable tumors for >16 days ([4]; U87 xenografts, 10 mg/kg/dose i.p., five days per week for four weeks): 40%
